Assay [1] has as its target Cy5-labelled Mcl1 (amino acids 171-321) C286S protein (UniProtKB Q07820) (Homo sapiens (Human), UniProt Q07820, C286S). The assay can be described thus: Inhibition of Mcl-1 by the fluorescence quenching assay (Example A, Method B). In kind it is binding. Put shortly: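 Cy5-labelled Mcl1 171-321 C286S (1 nM) quenched by TQ5WS-labelled PUMA peptide (10, 20 or 400 nM); displacement raises fluorescence (Ex 620/Em 680 nm). Buffer 10 mM HEPES, 150 mM NaCl, 0.05% Tween 20, pH 7.4, 5% DMSO; 2 h at room temperature, 11-point curves, IC50 converted to Ki (cKi/eKi).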

Assay [2] concerns H929 multiple myeloma tumor line. The assay can be described thus: In vitro cytotoxicity, MTT assay (Example B, Method A). The format is cell-based. As to conditions: H929 cells, 48 hours exposure, read-out: C50. As for the experimental part:
The cytotoxicity studies were carried out on the H929 multiple myeloma tumor line.
The cells are distributed onto microplates and exposed to the test compounds for 48 hours. The cell viability is then quantified by a colorimetric assay, the Microculture Tetrazolium Assay (Carmichael et al, Cancer Res. 1987, 47, 939-942).
The results are expressed in C50 which means concentration corresponding to […] of effect/inhibition.
A general note: Formazan colour is commonly taken as a measure of viable cells.

SMILES strings stand for the structures. Read-outs that look alike come from different tables or passages of the source.

Cy5-labelled Mcl1 (amino acids 171-321) C286S protein, sequence (Q07820 171-321 C286S): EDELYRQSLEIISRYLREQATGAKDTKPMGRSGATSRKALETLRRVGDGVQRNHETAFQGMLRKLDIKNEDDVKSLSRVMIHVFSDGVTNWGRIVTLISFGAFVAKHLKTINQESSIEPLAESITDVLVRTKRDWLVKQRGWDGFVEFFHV

With `C[C@@H](COc1ccnc2c1[C@H](C)CCC2)C[C@H]1Cc2ccc(F)cc2[C@]12CC[C@@](Nc1cccc(Cl)c1)(C(=O)O)CC2` [Example 765, (1r,2′S,4S)-4-(3-chloroanilino)-6′-fluoro-2′-[(2R)-2-methyl-3-{[(5R)-5-methyl-5,6,7,8-tetrahydroquinolin-4-yl]oxy}propyl]-2′,3′-dihydrospiro[cyclohexane-1,1′-indene]-4-carboxylic acid], the Ki in assay [1] stood at 0.661 nM. Moreover, the IC50 in assay [2] (Homo sapiens, NCI-H929, 48 h) was 210 nM.

Consider `C[C@@H](COc1ccnc2c1C(F)CCC2)C[C@H]1Cc2ccccc2[C@]12CC[C@@](Nc1cccc(Cl)c1)(C(=O)O)CC2` (single isomer, unassigned) [Example 686], for which the Ki in assay [1] was found to be 1.85 nM. Further, the IC50 in assay [2] was 442 nM.

For the molecule `CC(=O)c1ccc2c(c1)[C@]1(CC[C@@](Nc3cccc(Cl)c3)(C(=O)O)CC1)[C@@H](C[C@@H](C)COc1ccnc3c1[C@H](C)CCC3)C2` [Example 858, (1r,2′S,4S)-6′-acetyl-4-(3-chloroanilino)-2′-[(2R)-2-methyl-3-{[(5R)-5-methyl-5,6,7,8-tetrahydroquinolin-4-yl]oxy}propyl]-2′,3′-dihydrospiro[cyclohexane-1,1′-indene]-4-carboxylic acid], the Ki in assay [1] was determined as 0.0699 nM. Besides, the IC50 in assay [2] (Homo sapiens, NCI-H929, 48 h) was 50.6 nM.

With `CC(CC1Cc2ccccc2[C@]12CC[C@@](Nc1cccc(Cl)c1)(C(=O)O)CC2)C1CCC(=O)CC1` (single isomer, unassigned) [Example 573, (1r,4r)-4-(3-chloroanilino)-2′-[2-(4-oxocyclohexyl)propyl]-2′,3′-dihydrospiro[cyclohexane-1,1′-indene]-4-carboxylic acid], in assay [1], the inhibition constant (Ki) came to 806 nM. Besides, the IC50 in assay [2] was 30000 nM.

As for `C[C@@H](COc1ccnc2c1[C@H](C)CCC2)C[C@@H]1Cc2cc(F)ccc2[C@]12CC[C@@](Nc1cccc(Cl)c1)(C(=O)O)CC2` [Example 769, (1r,2′R,4R)-4-(3-chloroanilino)-5′-fluoro-2′-[(2R)-2-methyl-3-{[(5R)-5-methyl-5,6,7,8-tetrahydroquinolin-4-yl]oxy}propyl]-2′,3′-dihydrospiro[cyclohexane-1,1′-indene]-4-carboxylic acid], in assay [1], the Ki amounted to 1.52 nM. Moreover, the IC50 in assay [2] (Homo sapiens, NCI-H929, 48 h) is 125 nM.

On to `C[C@@H](COc1ccnc2c1[C@H](C)CCC2)C[C@H]1Cc2ccccc2[C@]12CC[C@@](Nc1cccc(Br)c1)(C(=O)O)CC2` [Example 711, (1r,2′S,4S)-4-(3-bromoanilino)-2′-[(2R)-2-methyl-3-{[(5R)-5-methyl-5,6,7,8-tetrahydroquinolin-4-yl]oxy}propyl]-2′,3′-dihydrospiro[cyclohexane-1,1′-indene]-4-carboxylic acid], for which the Ki in assay [1] turned out to be 0.446 nM. In addition, the IC50 in assay [2] (Homo sapiens, NCI-H929, 48 h) amounted to 59.8 nM.

With `O=C(O)[C@]1(Nc2cccc(Cl)c2)CC[C@@]2(CC1)c1ccccc1CC2CC(COc1ccccc1)COc1ccnc2ccsc12` (stereo partly drawn) [Example 501, (1r,4r)-4-(3-chloroanilino)-2′-{2-(phenoxymethyl)-3-[(thieno[3,2-b]pyridin-7-yl)oxy]propyl}-2′,3′-dihydrospiro[cyclohexane-1,1′-indene]-4-carboxylic acid], in assay [1], the Ki is 4.8 nM. In addition, the IC50 in assay [2] (Homo sapiens, NCI-H929, 48 h) worked out at 431 nM.

With `Cc1cc(C(C)O)cc2c1C=C(C[C@@H](C)COc1ccnc3c1[C@H](C)CCC3)[C@]21CC[C@](Nc2cccc(Cl)c2)(C(=O)O)CC1` (single isomer, unassigned) [Example 759], the Ki in assay [1] turned out to be 0.303 nM. Also, the IC50 in assay [2] came out at 185 nM.

Consider `Cc1cccc2c1CC(C[C@@H](C)COc1ccnc3c1[C@H](C)CCC3)[C@]21CC[C@](Nc2cccc(Cl)c2)(C(=O)O)CC1` (single isomer, unassigned) [Example 754], for which the Ki in assay [1] was 1.23 nM. For the same molecule, the IC50 in assay [2] (Homo sapiens, NCI-H929, 48 h) was found to be 96.6 nM.

Take `C[C@@H](COc1ccnc2c1[C@H](C)CCC2)C[C@H]1Cc2ccccc2[C@]12CC[C@@](Sc1cccc(Cl)c1)(C(=O)O)CC2` [Example 718, (1r,2′S,4S)-4-[(3-chlorophenyl)sulfanyl]-2′-[(2R)-2-methyl-3-{[(5R)-5-methyl-5,6,7,8-tetrahydroquinolin-4-yl]oxy}propyl]-2′,3′-dihydrospiro[cyclohexane-1,1′-indene]-4-carboxylic acid]: in assay [1] (@ 10 μM, read-out: Mcl-1 inhibition, % at a single concentration), the inhibition at 10 µM stood at 14.8%. In assay [2] (Homo sapiens, NCI-H929, 48 h), the IC50 was determined as 15900 nM.

Regarding `CC(CC1Cc2ccccc2[C@]12CC[C@@](Nc1cccc(Cl)c1)(C(=O)O)CC2)C1CCC(=O)CC1` (single isomer, unassigned) [Example 572, (1r,4r)-4-(3-chloroanilino)-2′-[2-(4-oxocyclohexyl)propyl]-2′,3′-dihydrospiro[cyclohexane-1,1′-indene]-4-carboxylic acid], the Ki in assay [1] is 84.2 nM. Moreover, the IC50 in assay [2] came to 30000 nM.

Consider `O=C(O)[C@]1(Nc2cccc(Cl)c2)CC[C@@]2(CC1)c1ccccc1CC2CC(COc1ccnc2ccsc12)Cc1ccccc1` (single isomer, unassigned) [Example 562, (1r,4r)-2′-{2-benzyl-3-[(thieno[3,2-b]pyridin-7-yl)oxy]propyl}-4-(3-chloroanilino)-2′,3′-dihydrospiro[cyclohexane-1,1′-indene]-4-carboxylic acid], for which the inhibition constant (Ki) in assay [1] came to 80.9 nM. Also, in assay [2], the IC50 is 17800 nM.

As to `COCCOc1ccc2c(c1)[C@]1(CC[C@@](Nc3cccc(Cl)c3)(C(=O)O)CC1)[C@H](C[C@@H](C)COc1ccnc3ccsc13)C2` [Example 729, (1r,2′R,4R)-4-(3-chloroanilino)-6′-(2-methoxyethoxy)-2′-{(2R)-2-methyl-3-[(thieno[3,2-b]pyridin-7-yl)oxy]propyl}-2′,3′-dihydrospiro[cyclohexane-1,1′-indene]-4-carboxylic acid], the Ki in assay [1] was 7.68 nM. In addition, the IC50 in assay [2] (Homo sapiens, NCI-H929, 48 h) worked out at 864 nM.

Regarding `CC(O)c1ccc2c(c1)[C@]1(CC[C@@](Nc3cccc(Cl)c3)(C(=O)O)CC1)[C@@H](C[C@@H](C)COc1ccnc3c1[C@H](C)CC[C@H]3F)C2` (single isomer, unassigned) [Example 863], the Ki in assay [1] is 0.382 nM. Moreover, the IC50 in assay [2] is 76.7 nM.

For `CC(=O)c1cc2c(cc1F)C=C(C[C@@H](C)COc1ccnc3c1[C@@H](C)CCC3)[C@]21CC[C@](Nc2cccc(Cl)c2)(C(=O)O)CC1` [Example 873, (1r,4R)-6′-acetyl-4-(3-chloroanilino)-5′-fluoro-2′-[(2R)-2-methyl-3-{[(5S)-5-methyl-5,6,7,8-tetrahydroquinolin-4-yl]oxy}propyl]spiro[cyclohexane-1,1′-indene]-4-carboxylic acid], in assay [1], the Ki is 4.17 nM. The IC50 in assay [2] (Homo sapiens, NCI-H929, 48 h) was determined as 341 nM.

On to `C[C@H]1Cc2nccc(OC[C@H](C)C[C@H]3Cc4ccccc4[C@]34CC[C@@](Nc3cccc(Cl)c3)(C(=O)O)CC4)c2[C@H](C)C1` [Example 667, (1r,2′S,4S)-4-(3-chloroanilino)-2′-[(2R)-3-{[(5R,7R)-5,7-dimethyl-5,6,7,8-tetrahydroquinolin-4-yl]oxy}-2-methylpropyl]-2′,3′-dihydrospiro[cyclohexane-1,1′-indene]-4-carboxylic acid], for which the Ki in assay [1] amounted to 4.05 nM. In addition, in assay [2] (Homo sapiens, NCI-H929, 48 h), the IC50 was determined as 574 nM.

Take `CC[C@H]1CCc2nccc(OC[C@H](C)C[C@H]3Cc4ccccc4[C@]34CC[C@@](Nc3cccc(Cl)c3)(C(=O)O)CC4)c21` [Example 613, (1r,2′S,4S)-4-(3-chloroanilino)-2′-[(2R)-3-{[(5S)-5-ethyl-6,7-dihydro-5H-cyclopenta[b]pyridin-4-yl]oxy}-2-methylpropyl]-2′,3′-dihydrospiro[cyclohexane-1,1′-indene]-4-carboxylic acid]: the Ki in assay [1] is 18.9 nM. The IC50 in assay [2] (Homo sapiens, NCI-H929, 48 h) came to 2360 nM.

As to `O=C(O)[C@]1(Nc2cccc(Cl)c2)CC[C@@]2(CC1)c1ccccc1CC2CC(COc1ccnc2ccsc12)Cc1ccccc1` (single isomer, unassigned) [Example 560, (1r,4r)-2′-{2-benzyl-3-[(thieno[3,2-b]pyridin-7-yl)oxy]propyl}-4-(3-chloroanilino)-2′,3′-dihydrospiro[cyclohexane-1,1′-indene]-4-carboxylic acid], the Ki in assay [1] was 92 nM. The IC50 in assay [2] stood at 12600 nM.

As to `C[C@@H](COc1ccnc2c1[C@@H](C)CCC2)C[C@H]1Cc2cc(Cl)c(O)cc2[C@]12CC[C@@](Nc1cccc(Cl)c1)(C(=O)O)CC2` [Example 814, (1r,2′S,4S)-5′-chloro-4-(3-chloroanilino)-6′-hydroxy-2′-[(2R)-2-methyl-3-{[(5S)-5-methyl-5,6,7,8-tetrahydroquinolin-4-yl]oxy}propyl]-2′,3′-dihydrospiro[cyclohexane-1,1′-indene]-4-carboxylic acid], in assay [1], the inhibition constant (Ki) worked out at 3.42 nM. Further, the IC50 in assay [2] (Homo sapiens, NCI-H929, 48 h) was determined as 135 nM.

In the case of `C[C@@H]1CCCc2nccc(OCC(CC3Cc4ccccc4[C@]34CC[C@@](Nc3cccc(Cl)c3)(C(=O)O)CC4)C(F)F)c21` (single isomer, unassigned) [Example 521], the Ki in assay [1] stood at 32.3 nM. For the same molecule, the IC50 in assay [2] was 986 nM.

For `C[C@@H](COc1ccnc2c1[C@H](C)CCC2)CC1Cc2c(Cl)c(F)ccc2[C@]12CC[C@@](Nc1cccc(Cl)c1)(C(=O)O)CC2` (single isomer, unassigned) [Example 746], in assay [1], the Ki was 0.356 nM. In assay [2], the IC50 stood at 25.4 nM.

In general, Ki refers to a measure of affinity in units of concentration, obtained from inhibition or displacement.

The values above are taken from patent US20240150293A1, “SPIROCYCLOHEXANE DERIVATIVES, PHARMACEUTICAL COMPOSITIONS CONTAINING THEM AND THEIR USES AS ANTI-APOPTOTIC INHIBITORS” (LES LABORATOIRES SERVIER, priority 2021, published 2024).
